Experimental data as given in USRE49735E1 (BRISTOL-MYERS SQUIBB COMPANY, priority 2010, dated 2023).
Where “and” joins values, the source holds several entries; their conditions need not be identical. Identical values can stand only once.

These compounds were tested against human mGluR5A (Homo sapiens, UniProt P41594) (assay: mGluR5 FLIPR Assay). Conditions: positive modulator activity; HEK293 (ZF) cells with human mGluR5A and rat GLAST; Ca++ response to ~EC10 glutamate.
Format: cell-based

Sequence of human mGluR5A (P41594 21-1180 isoform P41594-2): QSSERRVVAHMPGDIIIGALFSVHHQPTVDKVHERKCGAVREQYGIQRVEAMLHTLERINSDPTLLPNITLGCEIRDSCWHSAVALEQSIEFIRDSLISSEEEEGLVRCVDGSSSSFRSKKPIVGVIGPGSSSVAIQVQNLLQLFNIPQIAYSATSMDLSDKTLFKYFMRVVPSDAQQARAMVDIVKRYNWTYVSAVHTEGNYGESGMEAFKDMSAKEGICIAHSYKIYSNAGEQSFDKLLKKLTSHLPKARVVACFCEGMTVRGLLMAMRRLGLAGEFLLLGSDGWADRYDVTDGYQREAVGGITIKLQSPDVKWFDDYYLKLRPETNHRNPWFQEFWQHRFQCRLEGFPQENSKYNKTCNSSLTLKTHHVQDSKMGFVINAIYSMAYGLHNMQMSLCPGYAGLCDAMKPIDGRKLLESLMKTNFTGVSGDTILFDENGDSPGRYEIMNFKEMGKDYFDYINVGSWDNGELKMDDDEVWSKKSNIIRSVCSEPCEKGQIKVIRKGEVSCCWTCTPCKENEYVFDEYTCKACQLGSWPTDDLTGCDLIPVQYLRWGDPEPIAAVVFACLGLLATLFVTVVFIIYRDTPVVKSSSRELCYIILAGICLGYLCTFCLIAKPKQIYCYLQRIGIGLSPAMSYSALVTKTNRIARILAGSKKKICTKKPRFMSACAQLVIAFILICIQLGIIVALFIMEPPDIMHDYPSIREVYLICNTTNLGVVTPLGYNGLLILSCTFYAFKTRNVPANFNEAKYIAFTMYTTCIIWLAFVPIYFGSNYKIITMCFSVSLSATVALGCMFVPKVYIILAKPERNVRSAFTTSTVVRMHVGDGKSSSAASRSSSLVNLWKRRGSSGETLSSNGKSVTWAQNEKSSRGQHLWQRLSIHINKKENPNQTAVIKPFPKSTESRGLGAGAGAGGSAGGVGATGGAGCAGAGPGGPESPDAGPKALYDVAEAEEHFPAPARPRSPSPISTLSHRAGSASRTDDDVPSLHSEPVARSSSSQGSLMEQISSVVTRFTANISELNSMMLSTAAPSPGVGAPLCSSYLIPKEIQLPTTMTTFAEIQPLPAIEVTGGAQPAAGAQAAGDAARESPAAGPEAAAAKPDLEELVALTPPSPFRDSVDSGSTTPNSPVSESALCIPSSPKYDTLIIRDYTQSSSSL

Structure (SMILES) | EC50
COc1cccc([C@@H]2OC(=O)N[C@H]2c2cccc(C#Cc3cccc(C(F)(F)F)c3)c2)c1 [Example 130, (4S,5S)-5-(3-methoxyphenyl)-4-(3-((3-(trifluoromethyl)phenyl)ethynyl)phenyl)oxazolidin-2-one] | > 1000 nM
COc1cccc([C@H]2OC(=O)N[C@@H]2c2cccc(C#Cc3ccc(F)cc3)c2)c1 [Example 131, (4R,5R)-4-(3-((4-fluorophenyl)ethynyl)phenyl)-5-(3-methoxyphenyl)oxazolidin-2-one] | < 100 nM
COc1cccc([C@@H]2OC(=O)N[C@H]2c2cccc(C#Cc3ccc(F)cc3)c2)c1 [Example 132, (4S,5S)-4-(3-((4-fluorophenyl)ethynyl)phenyl)-5-(3-methoxyphenyl)oxazolidin-2-one] | > 1000 nM
COc1cccc([C@H]2OC(=O)N[C@@H]2c2cccc(C#Cc3cccc(F)c3)c2)c1 [Example 133, (4R,5R)-4-(3-((3-fluorophenyl)ethynyl)phenyl)-5-(3-methoxyphenyl)oxazolidin-2-one] | < 100 nM
COc1cccc([C@@H]2OC(=O)N[C@H]2c2cccc(C#Cc3cccc(F)c3)c2)c1 [Example 134, (4S,5S)-4-(3-((3-fluorophenyl)ethynyl)phenyl)-5-(3-methoxyphenyl)oxazolidin-2-one] | > 1000 nM
O=C1N[C@H](c2cc(C#Cc3cccnc3)cnc2F)[C@@H](c2cccc(F)c2)O1 [Example 139, (4R,5R)-4-(2-Fluoro-5-(pyridin-3-ylethynyl)pyridin-3-yl)-5-(3-fluorophenyl)oxazolidin-2-one] | < 100 nM
O=C1N[C@H](c2cc(C#Cc3cncc(F)c3)cnc2F)[C@@H](c2cccc(F)c2)O1 [Example 140, (4R,5R)-4-(2-Fluoro-5-((5-fluoropyridin-3-yl)ethynyl)pyridin-3-yl)-5-(3-fluorophenyl)oxazolidin-2-one] | < 100 nM
O=C1N[C@H](c2cc(C#Cc3ccnc(F)c3)cnc2F)[C@@H](c2cccc(F)c2)O1 [Example 141, (4R,5R)-4-(2-Fluoro-5-((2-fluoropyridin-4-yl)ethynyl)pyridin-3-yl)-5-(3-fluorophenyl)oxazolidin-2-one] | < 100 nM
O=C1N[C@H](c2cc(C#Cc3cccnc3)cnc2F)[C@@H](c2ccc(F)cc2)O1 [Example 142, (4R,5R)-4-(2-Fluoro-5-(pyridin-3-ylethynyl)pyridin-3-yl)-5-(4-fluorophenyl)oxazolidin-2-one] | < 100 nM and 3.7 nM
O=C1N[C@H](c2cc(C#Cc3cncc(F)c3)cnc2F)[C@@H](c2ccc(F)cc2)O1 [Example 143, (4R,5R)-4-(2-Fluoro-5-((5-fluoropyridin-3-yl)ethynyl)pyridin-3-yl)-5-(4-fluorophenyl)oxazolidin-2-one] | < 100 nM
O=C1N[C@H](c2cc(C#Cc3cncc(F)c3)ncc2F)[C@@H](c2ccc(F)cc2)O1 [Example 144, (4R,5R)-4-(5-Fluoro-2-((5-fluoropyridin-3-yl)ethynyl)pyridin-4-yl)-5-(4-fluorophenyl)oxazolidin-2-one] | < 100 nM
O=C1N[C@H](c2cc(C#Cc3cccnc3)cnc2F)[C@@H](c2ccc(C(F)(F)F)cc2)O1 [Example 145, (4R,5R)-4-(2-Fluoro-5-(pyridin-3-ylethynyl)pyridin-3-yl)-5-(4-(trifluoromethyl)phenyl)oxazolidin-2-one] | < 100 nM
O=C1N[C@H](c2cc(C#Cc3cccnc3)cnc2F)[C@@H](c2ccc(Cl)cc2)O1 [Example 146, (4R,5R)-5-(4-Chlorophenyl)-4-(2-fluoro-5-(pyridin-3-ylethynyl)pyridin-3-yl)oxazolidin-2-on] | < 100 nM
O=C1N[C@H](c2cc(C#Cc3ncccc3F)cnc2F)[C@@H](c2cccc(F)c2)O1 [Example 147, (4R,5R)-4-(2-Fluoro-5-((3-fluoropyridin-2-yl)ethynyl)pyridin-3-yl)-5-(3-fluorophenyl)oxazolidin-2-one] | > 1000 nM
O=C1N[C@H](c2cc(C#Cc3ccccn3)cnc2F)[C@@H](c2cccc(F)c2)O1 [Example 148, (4R,5R)-4-(2-Fluoro-5-(pyridin-2-ylethynyl)pyridin-3-yl)-5-(3-fluorophenyl)oxazolidin-2-one] | > 1000 nM
O=C1N[C@H](c2cc(C#Cc3ccnc(C4CC4)c3)cnc2F)[C@@H](c2ccc(Cl)cc2)O1 [Example 150, (4R,5R)-5-(4-Chlorophenyl)-4-(5-((2-cyclopropylpyridin-4-yl)ethynyl)-2-fluoropyridin-3-yl)oxazolidin-2-one] | > 1000 nM

Structure (SMILES) | EC50
O=C1N[C@H](c2cc(C#Cc3ccc(C4CC4)nc3)cnc2F)[C@@H](c2ccc(F)cc2)O1 [Example 151, (4R,5R)-4-(5-((6-Cyclopropylpyridin-3-yl)ethynyl)-2-fluoropyridin-3-yl)-5-(4-fluorophenyl)oxazolidin-2-one] | > 1000 nM
O=C1N[C@H](c2cc(C#Cc3ccnc(C4CC4)c3)cnc2F)[C@@H](c2ccc(F)cc2)O1 [Example 152, (4R,5R)-4-(5-((2-Cyclopropylpyridin-4-yl)ethynyl)-2-fluoropyridin-3-yl)-5-(4-fluorophenyl)oxazolidin-2-one] | > 1000 nM
O=C1N[C@H](c2cc(C#Cc3cccc(C4CC4)n3)cnc2F)[C@@H](c2ccc(F)cc2)O1 [Example 153, (4R,5R)-4-(5-((6-Cyclopropylpyridin-2-yl)ethynyl)-2-fluoropyridin-3-yl)-5-(4-fluorophenyl)oxazolidin-2-one] | 100 to 1000 nM and 188 nM
O=C1N[C@H](c2cc(C#Cc3ccc4nccnc4c3)cnc2F)[C@@H](c2ccc(F)cc2)O1 [Example 154, (4R,5R)-4-(2-fluoro-5-(quinoxalin-6-ylethynyl)pyridin-3-yl)-5-(4-fluorophenyl)oxazolidin-2-one] | > 1000 nM
O=C1N[C@H](c2cc(C#Cc3cncc(C4CC4)c3)cnc2F)[C@@H](c2ccc(F)cc2)O1 [Example 155, (4R,5R)-4-(5-((5-Cyclopropylpyridin-3-yl)ethynyl)-2-fluoropyridin-3-yl)-5-(4-fluorophenyl)oxazolidin-2-one] | > 1000 nM
O=C1N[C@H](c2cc(C#Cc3ccccn3)cnc2F)[C@@H](c2ccc(F)cc2)O1 [Example 156, (4R,5R)-4-(2-Fluoro-5-(pyridin-2-ylethynyl)pyridin-3-yl)-5-(4-fluorophenyl)oxazolidin-2-one] | < 100 nM
O=C1N[C@H](c2cc(C#Cc3cccc(F)n3)cnc2F)[C@@H](c2ccc(F)cc2)O1 [Example 157, (4R,5R)-4-(2-Fluoro-5-((6-fluoropyridin-2-yl)ethynyl)pyridin-3-yl)-5-(4-fluorophenyl)oxazolidin-2-one] | < 100 nM
O=C1N[C@H](c2cccc(C#Cc3ccccc3)c2)[C@@H](c2nc(-c3ccccc3)no2)O1 [Example 158] | > 30000 nM
O=C1N[C@@H](c2cccc(C#Cc3ccccc3)c2)[C@H](c2nc(-c3ccccc3)no2)O1 [Example 159] | > 1000 nM
O=C1N[C@H](c2cccc(C#Cc3ccccc3)c2)[C@@H](c2nc(-c3ccncc3)no2)O1 [Example 160] | > 1000 nM
O=C1N[C@@H](c2cccc(C#Cc3ccccc3)c2)[C@H](c2nc(-c3ccncc3)no2)O1 [Example 161] | > 1000 nM
O=C1N[C@H](c2cccc(C#Cc3ccccc3)c2)[C@@H](c2nc(-c3ccccn3)no2)O1 [Example 162] | > 1000 nM
O=C1N[C@@H](c2cccc(C#Cc3ccccc3)c2)[C@H](c2nc(-c3ccccn3)no2)O1 [Example 163] | > 1000 nM
O=C1N[C@H](c2cccc(C#Cc3ccccc3)c2)[C@@H](c2nc(-c3cccnc3)no2)O1 [Example 164] | > 1000 nM
O=C1N[C@@H](c2cccc(C#Cc3ccccc3)c2)[C@H](c2nc(-c3cccnc3)no2)O1 [Example 165] | > 1000 nM
Cc1noc([C@H]2OC(=O)N[C@@H]2c2cccc(C#Cc3ccccc3)c2)n1 [Example 166] | > 1000 nM

Second part, the compound after the results:

EC50 | Structure (SMILES)
> 1000 nM | Cc1noc([C@@H]2OC(=O)N[C@H]2c2cccc(C#Cc3ccccc3)c2)n1 [Example 167]
> 1000 nM | O=C1N[C@H](c2cccc(C#Cc3ccccc3)c2)[C@@H](c2nnn[nH]2)O1 [Example 168, (4R,5S)-4-(3-(Phenylethynyl)phenyl)-5-(1H-tetrazol-5-yl)oxazolidin-2-one]
> 1000 nM | Cn1nnc([C@H]2OC(=O)N[C@@H]2c2cccc(C#Cc3ccccc3)c2)n1 [Example 169, (4R,5S)-5-(2-Methyl-2H-tetrazol-5-yl)-4-(3-(phenylethynyl)phenyl)oxazolidin-2-one]
< 100 nM | O=C1N[C@H](c2cncc(C#Cc3ccccc3)c2)[C@@H](c2cc(F)cc(F)c2)O1 [Example 170]
< 100 nM | O=C1N[C@H](c2cncc(C#Cc3cncc(F)c3)c2)[C@@H](c2cc(F)cc(F)c2)O1 [Example 171]
< 100 nM | O=C1N[C@H](c2cncc(C#Cc3ccccc3)c2)[C@@H](c2ccc(F)c(F)c2)O1 [Example 172]
< 100 nM | O=C1N[C@H](c2cncc(C#Cc3cccnc3)c2)[C@@H](c2ccc(F)c(F)c2)O1 [Example 173]
> 1000 nM | N#Cc1cccc(C#Cc2cncc([C@H]3NC(=O)O[C@@H]3c3cc(F)cc(F)c3)c2)c1 [Example 174]
< 100 nM | O=C1N[C@H](c2cncc(C#Cc3cncc(F)c3)c2)[C@@H](c2ccc(F)c(F)c2)O1 [Example 175]
< 100 nM and 5.2 nM | N#Cc1cccc(C#Cc2cncc([C@H]3NC(=O)O[C@@H]3c3ccc(F)c(F)c3)c2)c1 [Example 176]
> 1000 nM | O=C1N[C@H](c2cncc(C#Cc3ccccn3)c2)[C@@H](c2cc(F)cc(F)c2)O1 [Example 177]
100 to 1000 nM and 117 nM | O=C1N[C@H](c2cncc(C#Cc3ccccn3)c2)[C@@H](c2ccc(F)c(F)c2)O1 [Example 178]
< 100 nM | O=C1N[C@H](c2cncc(C#Cc3ccccc3)c2)[C@@H](c2ccc(F)cc2F)O1 [Example 179]
100 to 1000 nM and 259 nM | N#Cc1cccc(C#Cc2cncc([C@H]3NC(=O)O[C@@H]3c3ccc(F)cc3F)c2)c1 [Example 180]
100 to 1000 nM and 279 nM | O=C1N[C@H](c2cncc(C#Cc3cccnc3)c2)[C@@H](c2cc(F)cc(F)c2)O1 [Example 181]
< 100 nM | O=C1N[C@H](c2cncc(C#Cc3cncc(F)c3)c2)[C@@H](c2ccc(F)cc2F)O1 [Example 182]
< 100 nM | O=C1N[C@H](c2cncc(C#Cc3ccccn3)c2)[C@@H](c2ccc(F)cc2F)O1 [Example 183]
